Measured values reported in US8993585B2, “Cyclic amine substituted pyrimidinediamines as PKC inhibitors” (Rigel Pharmaceuticals, Inc., priority 2007, dated 2015).

System: Human primary T cells
Experiment: IL-2 ELISA, Human Primary T Cell, Anti-CD3+CD28+ (Example 3)
Type: cell-based
Conditions: anti-CD3+CD28 stimulation
Procedure, shortened: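 IL-2 was read by ELISA after stimulation on wells pre-coated with 1 ug/ml αCD3 and 5 μg/ml αCD28. Before this, 100,000 human primary T cells per well spent 1 h at 37 °C with test compound in Yssel's medium. The counter-screen replaced antibody stimulation with PMA (0.5 ng/ml final) and ionomycin (0.1 uM final).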

In the case of `CN1C(C)(C)CC(Nc2nc(Nc3ccc(N4CCC(F)(F)CC4)c(F)c3)ncc2F)CC1(C)C` [Compound I-51], the IC50 (24 hours) is reported as 1010 nM.
Compound `CN1C(C)(C)CC(Nc2nc(Nc3cccc(OC(F)(F)F)c3)ncc2Cl)CC1(C)C` [Compound I-240] has an IC50 (Homo sapiens, T-cell, 24 h) of 683 nM.
`CCN1C(=O)C(C)(C)Oc2cc(Nc3ncc(C#C[Si](C)(C)C)c(NC4CC(C)(C)N(C)C(C)(C)C4)n3)ccc21` [II-151] gave an IC50 (T-cell, 24 hours) of 1250 nM.
Work on `COC(=O)CCN1C(C)(C)CC(Nc2nc(Nc3cc(OC)cc(OC)c3)ncc2F)CC1(C)C` [Compound I-292] yielded an IC50 (Homo sapiens, T-cell, 24 h) of 2480 nM.
For `CN1C(C)(C)CC(Nc2nc(Nc3ccc(F)c(-n4cnnn4)c3)ncc2C(N)=O)CC1(C)C` [Compound I-468], the IC50 (24 hours) was 2690 nM.
With `CN1C(C)(C)CC(N(Cc2ccc3ccccc3n2)c2nc(Nc3ccc4c(c3)OCCO4)ncc2F)CC1(C)C` [II-89] the IC50 (Homo sapiens, T-cell, 24 h) was 7670 nM.
`CN1C(C)(C)CC(Nc2nc(Nc3ccc(N4CCN(S(C)(=O)=O)CC4)c(C(F)(F)F)c3)ncc2F)CC1(C)C` [Compound I-48] showed an IC50 (24 hours) of 39 nM.
With `CN1CCN(c2c(F)cc(Nc3ncc(F)c(NC4CC(C)(C)N(C)C(C)(C)C4)n3)cc2F)CC1` [Compound I-40] the IC50 (24 hours) was 461 nM.
`CN1CCN(c2ccc(Nc3ncc(Cl)c(NC4CC(C)(C)N(C)C(C)(C)C4)n3)cc2Cl)CC1` [Compound I-36] showed an IC50 (24 hours) of 83 nM.
Compound `COc1cc(Nc2ncc(F)c(NC3CC(C)(C)NC(C)(C)C3)n2)cc(OCCn2cccc2)c1` [Compound I-438] has an IC50 (Homo sapiens, T-cell, 24 h) of 300 nM.
With `CN1C(C)(C)CC(Nc2nc(Nc3ccc(N4CCN(S(C)(=O)=O)CC4)c(C#N)c3)ncc2C#N)CC1(C)C` [Compound I-196] the IC50 (24 hours) was 971 nM.
`CN1C(C)(C)CC(Nc2nc(Nc3ccc(N4CCOCC4)c(C(F)(F)F)c3)ncc2C(F)(F)F)CC1(C)C` [Compound I-330] showed an IC50 (24 hours) of 1120 nM.
For `COc1ccc(Nc2ncc([N+](=O)[O-])c(NC3CC(C)(C)N(C)C(C)(C)C3)n2)cc1Cl` [Compound I-71], the IC50 (24 hours) was 632 nM.
Compound `CN1C(C)(C)CCC(Nc2nc(Nc3ccc(N4CCN(S(C)(=O)=O)CC4)c(C(F)(F)F)c3)ncc2F)CC1(C)C` (stereo not shown) [Compound I-264, 5-Fluoro-N2-[4-methylsulfonylpiperazin-lyl-3-trifluoromethyl]phenyl-N4-(1,2,2,7,7-pentamethylazepan-4-yl)-2,4-pyrimidinediamine] has an IC50 (24 hours) of 4300 nM.
`CC1(C)CC(Nc2nc(Nc3ccc4c(c3)OC3(CCCCC3)O4)ncc2F)CC(C)(C)N1` [II-121] was tested, and the IC50 (Homo sapiens, T-cell, 24 h) was 1810 nM.
With `CN1C(C)(C)CC(Nc2nc(Nc3ccc(F)c(-c4cc5ccccc5s4)c3)ncc2F)CC1(C)C` [Compound I-181] the IC50 (24 hours) was 1320 nM.
Compound `COc1cc(Nc2ncc(F)c(N(Cc3ccc(-c4ccccc4C#N)cc3)C3CC(C)(C)N(C)C(C)(C)C3)n2)cc(OC)c1` [Compound I-325] has an IC50 (Homo sapiens, T-cell, 24 h) of 3460 nM.
With `CN1C(C)(C)CC(Nc2nc(Nc3nc4ccc([N+](=O)[O-])cc4s3)ncc2F)CC1(C)C` [II-17] the IC50 (Homo sapiens, T-cell, 24 h) was 845 nM.
For `CC1(C)CC(Nc2nc(Nc3ccc(-c4ccc(N5CCOCC5)nc4)c(C#N)c3)ncc2F)CC(C)(C)N1` [Compound I-429], the IC50 (Homo sapiens, T-cell, 24 h) was 770 nM.
`CN1C(C)(C)CC(Nc2nc(Nc3ccc(OCC(N)=O)cc3)ncc2F)CC1(C)C` [Compound I-134] gave an IC50 (24 hours) of 2430 nM.
Compound `CN1C(C)(C)CC(Nc2nc(Nc3ccc4c(c3)OCC(=O)N4CCF)ncc2F)CC1(C)C` [II-82] has an IC50 (Homo sapiens, T-cell, 24 h) of 291 nM.
`CN1C(C)(C)CC(Nc2nc(Nc3ccc(O)cc3)ncc2F)CC1(C)C` [Compound I-252] was tested, and the IC50 (24 hours) was 10200 nM.
`COc1cc(Nc2ncc(OC)c(NC3CC(C)(C)N(C)C(C)(C)C3)n2)cc(-n2nnnc2C)c1` [Compound I-424] was tested, and the IC50 (Homo sapiens, T-cell, 24 h) was 1010 nM.
`COc1cc(Nc2ncc(F)c(NC3CC(C)(C)N(C)C(C)(C)C3)n2)cc(OCCn2cccc2)c1` [Compound I-437] was tested, and the IC50 (Homo sapiens, T-cell, 24 h) was 170 nM.
`CC1(C)CC(Nc2nc(Nc3ccc(F)c(-n4cnnn4)c3)ncc2F)CC(C)(C)N1` [Compound I-467] gave an IC50 (24 hours) of 460 nM.
Compound `CN1CCN(c2ccc(Nc3ncc(F)c(NC4CC(C)(C)N(C)C4(C)C)n3)cc2C(F)(F)F)CC1` (stereo not shown) [Compound I-285, 5-Fluoro-N2-[4-(4-methylpiperazin-1-yl)-3-(trifluoromethyl)]phenyl-N4-(1,2,2,5,5-pentamethylpyrrolidin-3-yl)-2,4-pyrimidinediamine] has an IC50 (24 hours) of 1230 nM.
In the case of `COc1ccc(Nc2ncc(F)c(N(Cc3ccc4ccccc4n3)C3CC(C)(C)N(C)C(C)(C)C3)n2)cc1OC(F)F` [Compound I-321], the IC50 (Homo sapiens, T-cell, 24 h) is reported as 5950 nM.
For `CN1C(C)(C)CC(Nc2nc(Nc3cc(-c4cc5ccccc5s4)cc(C(F)(F)F)c3)ncc2F)CC1(C)C` [Compound I-205], the IC50 (24 hours) was 965 nM.
In the case of `CN1C(C)(C)CC(Nc2nc(Nc3ccc(NCc4ccccc4)cn3)ncc2F)CC1(C)C` [II-85], the IC50 (Homo sapiens, T-cell, 24 h) is reported as 3660 nM.
Work on `COc1ccc(Nc2ncc(F)c(NC3CC(C)(C)N(C)C(C)(C)C3)n2)cc1-c1ccoc1` [Compound I-183] yielded an IC50 (24 hours) of 901 nM.
`CN1CCN(c2ccc(Nc3ncc(F)c(NC4CCC(C)(C)N(C)C(C)(C)C4)n3)cc2C(F)(F)F)CC1` (stereo not shown) [Compound I-270, 5-Fluoro-N2-[4-methylpiperizine-3-trifluoromethyl]phenyl-N4-(1,2,2,7,7-pentamethylazepan-4-yl)-2,4-pyrimidinediamine] was tested, and the IC50 (24 hours) was 3450 nM.
`CN1CCN(c2ccc(Nc3ncc(F)c(NC4CC(C)(C)N(C)C(C)(C)C4)n3)cc2C(N)=O)CC1` [Compound I-53] showed an IC50 (24 hours) of 1940 nM.
With `CCN(CC)C1CCC(Nc2nc(Nc3ccc(N4CCN(C)CC4)c(Cl)c3)ncc2F)CC1` (stereo not shown) [IV-8, N2-[3-Chloro-4-(4-methylpiperazino)]phenyl-N4-(4-diethylamino)cyclohexyl-5-fluoro-2,4-pyrimidinediamine] the IC50 (Homo sapiens, T-cell, 24 h) was 4410 nM.
With `CN1CCN(C(=O)C2COc3cc(Nc4ncc(F)c(NC5CC(C)(C)NC(C)(C)C5)n4)ccc3O2)CC1` (stereo not shown) [II-160] the IC50 (Homo sapiens, T-cell, 24 h) was 17900 nM.
With `CC1(C)CC(Nc2nc(Nc3cc(OCC(F)(F)F)cc(OCC(F)(F)F)c3)ncc2C#N)CC(C)(C)N1` [Compound I-419] the IC50 (24 hours) was 270 nM.
`CN1C(C)(C)CC(Nc2nc(Nc3ccc(N4CCN(S(C)(=O)=O)CC4)c(C(F)(F)F)c3)ncc2[N+](=O)[O-])CC1(C)C` [Compound I-78] showed an IC50 (24 hours) of 928 nM.
Compound `CC(C)N1C(=O)C(C)(C)Oc2cc(Nc3ncc(C#N)c(NC4CC(C)(C)N(C)C(C)(C)C4)n3)ccc21` [II-74] has an IC50 (Homo sapiens, T-cell, 24 h) of 349 nM.
For `COc1cc(Nc2ncc(Br)c(NC3CC(C)(C)N(C)C(C)(C)C3)n2)cc(OC)c1OC` [Compound I-276], the IC50 (24 hours) was 1830 nM.
For `CN1C(C)(C)CC(Nc2nc(Nc3ccc(F)c(F)c3)ncc2F)CC1(C)C` [Compound I-21], the IC50 (24 hours) was 414 nM.
`CCN(CC)C1CCC(Nc2nc(Nc3ccc(N4CCN(C)CC4)c(C(F)(F)F)c3)ncc2F)CC1` (stereo not shown) [IV-7, N4-(4-Diethylamino)cyclohexyl-5-fluoro-N2-[4-(4-methylpiperazino)-3-trifluoromethyl]phenyl-2,4-pyrimidinediamine] gave an IC50 (24 hours) of 3620 nM.
`COc1ccc(Nc2ncc(F)c(NC3CC(C)(C)N(C)C(C)(C)C3)n2)cc1OCc1ccncc1` [Compound I-417] was tested, and the IC50 (24 hours) was 2670 nM.
Compound `COc1cc(Nc2ncc(F)c(NC3CC(C)(C)N(C)C(C)(C)C3)n2)ccc1-n1cccc1` [Compound I-349] has an IC50 (24 hours) of 1040 nM.
With `CN(C)c1ccc(-c2ccc(Nc3ncc(F)c(NC4CC(C)(C)NC(C)(C)C4)n3)cc2C#N)cn1` [Compound I-428] the IC50 (Homo sapiens, T-cell, 24 h) was 560 nM.
In the case of `CN1C(=O)c2ccc(Nc3ncc(F)c(NC4CC(C)(C)N(C)C(C)(C)C4)n3)cc2C1=O` [II-149], the IC50 (Homo sapiens, T-cell, 24 h) is reported as 990 nM.
In the case of `Cc1nnnn1-c1cccc(Nc2ncc(F)c(NC3CC(C)(C)NC(C)(C)C3)n2)c1` [Compound I-414], the IC50 (24 hours) is reported as 160 nM.
Work on `Cc1cnc(Nc2ccc3c(c2)OCCO3)nc1NC1CC(C)(C)N(C)C(C)(C)C1` [II-146] yielded an IC50 (Homo sapiens, T-cell, 24 h) of 3130 nM.
With `CC(C)OC(=O)COc1ccc(Nc2ncc(F)c(NC3CC(C)(C)N(C)C(C)(C)C3)n2)cc1` [Compound I-135] the IC50 (24 hours) was 4640 nM.
`CC1(C)CC(Nc2nc(Nc3ccc(N4CCN(S(C)(=O)=O)CC4)c(C(F)(F)F)c3)ncc2F)CC(C)(C)N1` [Compound I-257] was tested, and the IC50 (24 hours) was 423 nM.
With `CN1C(C)(C)CC(Nc2nc(Nc3ccc(N4CCOCC4)c(C(F)(F)F)c3)ncc2Cl)CC1(C)C` [Compound I-241] the IC50 (24 hours) was 361 nM.
`CC1(C)CC(Nc2nc(Nc3ccc(OCCN4CCOCC4)c(Cl)c3)ncc2C#N)CC(C)(C)N1` [Compound I-445] showed an IC50 (24 hours) of 910 nM.
Work on `CN1C(C)(C)CC(Nc2nc(Nc3ccc(C(=O)NCc4cccnc4)cc3)ncc2F)CC1(C)C` [Compound I-367] yielded an IC50 (24 hours) of 3700 nM.
`CNC(=O)c1cc(Nc2ncc(F)c(NC3CC(C)(C)N(C)C(C)(C)C3)n2)ccc1N1CCN(C)CC1` [Compound I-54] gave an IC50 (24 hours) of 3060 nM.
`COc1ccc(Nc2ncc(F)c(NC3CCC(C)(C)N(C)C(C)(C)C3)n2)cc1Cl` (stereo not shown) [Compound I-262, 5-Fluoro-N2-[3-chloro-4-methoxy]phenyl-N4-(1,2,2,7,7-pentamethylazepan-4-yl)-2,4-pyrimidinediamine] was tested, and the IC50 (24 hours) was 14800 nM.
In the case of `COc1ccc(Nc2ncc(F)c(NC3CC(C)(C)N(C(C)=O)C(C)(C)C3)n2)cc1Cl` [Compound I-213], the IC50 (24 hours) is reported as 19600 nM.
With `COc1cc(Cl)c(Nc2ncc(F)c(NC3CC(C)(C)N(C)C(C)(C)C3)n2)cc1OC` [Compound I-386] the IC50 (24 hours) was 3210 nM.
`CCN1C(=O)C(C)(C)Sc2cc(Nc3ncc(F)c(NC4CC(C)(C)N(C)C(C)(C)C4)n3)ccc21` [II-63] gave an IC50 (Homo sapiens, T-cell, 24 h) of 77.2 nM.
With `CN1CCN(C(=O)C2COc3cc(Nc4ncc(F)c(NC5CC(C)(C)N(C)C(C)(C)C5)n4)ccc3O2)CC1` (stereo not shown) [II-158] the IC50 (Homo sapiens, T-cell, 24 h) was 7200 nM.
For `CCNC(=O)Nc1ccc(Nc2ncc(F)c(NC3CC(C)(C)N(C)C(C)(C)C3)n2)cc1` [Compound I-149], the IC50 (24 hours) was 4360 nM.
`CCN1C(=O)C(C)(C)Oc2cc(Nc3ncc(C#N)c(NC4CC(C)(C)NC(C)(C)C4)n3)ccc21` [II-57] was tested, and the IC50 (Homo sapiens, T-cell, 24 h) was 147 nM.
Work on `COc1cc(Nc2ncc(F)c(N(Cc3ccc4ccccc4n3)C3CC(C)(C)N(C)C(C)(C)C3)n2)cc(OC)c1` [Compound I-322] yielded an IC50 (Homo sapiens, T-cell, 24 h) of 5790 nM.
For `CN1C(C)(C)CC(Nc2nc(Nc3cc(O)cc(O)c3)ncc2F)CC1(C)C` [Compound I-384], the IC50 (24 hours) was 9510 nM.
`COc1ccc(Nc2ncc(F)c(N(C)C3CC(C)(C)N(C)C(C)(C)C3)n2)cc1Cl` [Compound I-58] was tested, and the IC50 (24 hours) was 2000 nM.
With `CN1C(C)(C)CC(Nc2nc(Nc3nc(-c4ccc(C(F)(F)F)cc4)cs3)ncc2F)CC1(C)C` [II-140] the IC50 (Homo sapiens, T-cell, 24 h) was 590 nM.
`CSc1nnnn1-c1cccc(Nc2ncc(F)c(NC3CC(C)(C)N(C)C(C)(C)C3)n2)c1` [Compound I-399] gave an IC50 (24 hours) of 50 nM.
